Source: patent US12390437B2, “Itaconic acid derivatives and uses thereof intreating an inflammatory disease or a disease associated with an undesirable immune response” (Sitryx Therapeutics Limited, priority 2019, dated 2025)

Legend:
[1] = test system: IL-1β cytokine output from THP-1s; experiment: THP-1 AlphaLISA IL-1β cytokine assay; format: cell-based, human; details: Homo sapiens, THP-1, PMA-differentiated THP-1 cells, LPS 24 hr then Nigericin 1 hour; read-out: IL-1β (IC50)
In short: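 PMA-differentiated THP-1 cells (72 h) were pre-incubated 30 min with compound, then LPS-primed 24 h and pulsed with nigericin for 1 h at 37 °C. Supernatant cytokine was quantified by AlphaLISA; % inhibition was normalised to +/−LPS plate controls and IC50 taken from concentration-response curves.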

[2] = Mouse pharmacokinetic study, oral administration; format: in vivo; details: male, C57BL/6, mouse, plasma, po, 100 mg/kg, plasma, male C57BL/6 mice, oral gavage 100 mg/kg; for concentration at 0.25 h: read-out: Parent compound concentrations following oral administration, Time 0.25 h; for concentration at 0.5 h: read-out: Parent compound concentrations following oral administration, Time 0.5 h; for concentration at 1 h: read-out: Parent compound concentrations following oral administration, Time 1 h; for concentration at 2 h: read-out: Parent compound concentrations following oral administration, Time 2 h; for concentration at 4 h: read-out: Parent compound concentrations following oral administration, Time 4 h; for concentration at 8 h: read-out: Parent compound concentrations following oral administration, Time 8 h; for concentration at 24 h: read-out: Parent compound concentrations following oral administration, Time 24 h
Experimental: Pharmacokinetic studies were carried out in 6-8-week-old male C57BL/6 mice having free access to food and water. Intravenous dosing was conducted at 10 mg/kg (5 mL/kg; vehicle: 10% DMSO-90% (25% HP-13-CD in water)) via tail vein injection, with sampling at 3 min, 8 min, 15 min, 30 min, 1, 2, 4, 6 and 8 hours, i.e., 9 time points in total (N=3/time point), using semi-serial bleeding for plasma. Oral compound administration, via gavage, was carried out at 100 mg/kg (10 mL/kg; vehicle: 5% DMSO-95% (0.5% HPMC+0.1% Tween 80 in water)), with sampling at 5 min, 15 min, 30 min, 1, 2, 4, 6, 8 and 24 hours, i.e., 9 time points in total (N=3/time point), using semi-serial bleeding for plasma.
For both intravenous and oral routes, the mice were restrained manually at the designated time points, with ca. 110 μL of blood being taken into K2EDTA tubes via the facial vein. Blood samples were put on ice and centrifuged to obtain plasma samples from which the concentration at each time point was measured by LC-MS/MS.

[3] = Hepatocyte stability assay (mouse); format: in vitro ADME; details: cryopreserved hepatocytes, 10 μM compound, 0.5×10^6 cells/mL, 60 minutes, read-out: T½
Text: (§1) Defrosted cryo-preserved hepatocytes (viability >70%) are used to determine the metabolic stability of a compound via calculation of intrinsic clearance (Clint; a measure of the removal of a compound from the liver in the absence of blood flow and cell binding). Clearance data are particularly important for in vitro work as they can be used in combination with in vivo data to predict the half-life and oral bioavailability of a drug.
(§2) The metabolic stability in hepatocytes assay involves a time-dependent reaction using both positive and negative controls. The cells must be pre-incubated at 37° C. then spiked with test compound (and positive control); samples taken at pre-determined time intervals are analysed to monitor the change in concentration of the initial drug compound over 60 minutes. A buffer incubation reaction (with no hepatocytes present) acts as a negative control and two cocktail solutions, containing compounds with known high and low clearance values (verapamil/7-hydroxycoumarin and propranolol/diltiazem), act as positive controls. • 1. The assay is run with a cell concentration of 0.5×10^6 cells/mL in Leibovitz buffer. • 2. All compounds and controls are run in duplicate. • 3. Compound concentration is 10 μM. • 4. All compounds and controls are incubated with both cells and buffer to show turnover is due to hepatic metabolism. • 5. All wells on the incubation plate will have 326.7 μL of either cells or buffer added. • 6. Prior to assay, cell and buffer-only incubation plates are preincubated for 10 mins at 37° C. • 7. The assay is initiated by adding compounds, 3.3 μL of 1 mM in 10% DMSO-90% Buffer; final DMSO concentration is 0.1%. • 8. Samples are taken at regular timepoints (0, 5, 10, 20, 40, 60 min) until 60 mins. • 9. Sample volume is 40 μL and it is added to 160 μL of crash solvent (acetonitrile with internal standard) and stored on ice. • 10. At the end of the assay, the crash plates are centrifuged at 3500 rpm for 20 mins at 4° C. • 11. 80 μL of clear supernatant is removed and mixed with 80 μL of deionised water before being analysed by LC-MS/MS.
(§3) Raw LC-MS/MS data are exported to, and analysed in, Microsoft Excel for determination of intrinsic clearance. The percentage remaining of a compound is monitored using the peak area of the initial concentration as 100%. Intrinsic clearance and half-life values are calculated using a graph of the natural log of percentage remaining versus the time of reaction in minutes. Half-life (min) and intrinsic clearance (Clint in μL min^−1 10^−6 cells) values are calculated using the gradient of the graph (the elimination rate constant, k) and Equations 1 and 2.

hepatocytes = experiment: Hepatocyte stability assay (mouse); format: in vitro ADME; details: 10 μM compound, 0.5×10^6 cells/mL, 60 minutes
Text: as §1, §2, §3

SMILES	IC50 [1] [µM]	concentration at 0.25 h [2] [ng/mL]	concentration at 0.5 h [2] [ng/mL]	concentration at 1 h [2] [ng/mL]	concentration at 2 h [2] [ng/mL]	concentration at 4 h [2] [ng/mL]	concentration at 8 h [2] [ng/mL]	concentration at 24 h [2] [ng/mL]	half-life at 10 μM [3] [min]	CIint (μL min^−1 10^−6 cells) (hepatocytes)
C=C(CC(=O)OCCCCCCCC)C(=O)OCCC#N [Example 1, 1-(2-cyanoethyl) 4-octyl 2-methylenesuccinate]	9.3	–	–	–	–	–	–	–	–	–
C=C(CC(=O)OCCCCCCCC)C(=O)OCCS(C)(=O)=O [Example 2, 1-(2-(methylsulfonyl)ethyl) 4-octyl 2-methylenesuccinate]	5	–	–	–	–	–	–	–	–	–
C=C(CC(=O)OCCCCCCCC)C(=O)OCCC(F)(F)F [Example 3, 4-octyl 1-(3,3,3-trifluoropropyl) 2-methylenesuccinate]	15.6	–	–	–	–	–	–	–	–	–
C=C(CC(=O)OCCCCCCCC)C(=O)OC1COC1 [Example 4, 4-octyl 1-(oxetan-3-yl) 2-methylenesuccinate]	9.3	–	–	–	–	–	–	–	–	–
C=C(CC(=O)OCCCCCCCC)C(=O)OCCN1C(=O)CCC1=O [Example 9, 1-(2-(2,5-dioxopyrrolidin-1-yl)ethyl) 4-octyl 2-methylenesuccinate]	4.7	–	–	–	–	–	–	–	–	–
C=C(CC(=O)OCCCCCCCC)C(=O)OCC(=O)O [Example 49, 2-((2-methylene-4-(octyloxy)-4-oxobutanoyl)oxy)acetic acid]	7.2	536	843	344	111	12	4.5	< 1.5	10	138
C=C(CC(=O)OCCCCCCCC)C(=O)OCCC(=O)O [Example 80, 3-((2-methylene-4-(octyloxy)-4-oxobutanoyl)oxy)propanoic Acid]	9.6	850	1150	715	173	67	< 1.5	< 1.5	9	158
